Test results taken from patent US20130131321A1, “LIGANDS FOR ANTIBODY AND Fc-FUSION PROTEIN PURIFICATION BY AFFINITY CHROMATOGRAPHY” (GRAFFINITY PHARMACEUTICALS GMBH, priority 2010, published 2013).
Where two headings read alike, the source gives them in different places.

What was measured:
host cell proteins (HCP) = test: Microtiter plate chromatography of resins, host cell proteins (bound); assay type: binding, CHO
Experimental: Flowthrough from protein A chromatography (referred to as host cell proteins) was derived from the supernatant of antibody-producing CHO cell culture in serum-free medium.
(§1) Resins were assessed in packed mode by microtiter plate chromatography. For each column, approximately 30 μl of resin were transferred to a 384-well filter plate and sealed with appropriate top frits.
(§2) Columns were equilibrated with 6.7 column volumes (cv) of phosphate buffered saline (0.15 M NaCl, 20 mM sodium phosphate, pH 7.3; PBS) prior to injection. Either 3.3 cv of whole IgGs dissolved at 0.75 mg ml^−1, Fab or Fc fragments dissolved at 0.25 mg ml^−1 (all three in PBS) or host cell proteins (HCP) were injected onto columns. Antibody fragments of Bevacizumab (Fab and Fc) were prepared by cleavage of whole IgG with papain protease (3) according to the protocol of the manufacturer. […] Volumes transferred were spun through columns at 50 g for 1-2 min. During injection of samples, acceleration was reduced to 10 g and centrifugation time increased to 5-10 min. Effluent fractions were collected in 384-well plates and concentrations of protein analyzed by Bradford assay. Protein masses mi, mft and me (see below) were calculated as the product of fraction volume and measured protein concentration.
(§3) The fraction of ‘bound’ protein was calculated as the difference between the total mass of protein injected mi and the mass of protein detected in the flowthrough mft, divided by the total mass of protein injected.
(§4) the fraction of ‘bound’ protein and the ‘yield’ of protein were calculated for each resin based on data for whole IgG-antibodies. In the case of Bevacizumab fragments and host cell proteins, only the fraction of ‘bound’ protein is given. Selectivity of resins was calculated from data for Bevacizumab Whole IgG and host cell proteins. Due to limited experimental precision, selectivity was truncated beyond values of 10.

Bevacizumab [1] = test: Microtiter plate chromatography of resins, Bevacizumab whole IgG (bound, yield, selectivity); assay type: binding, humanized
Experimental: as §1, §2, §3
(§5) The ‘yield’ of protein was calculated as the mass of protein eluted me, divided by the mass of protein injected mi.
(§6) The ‘selectivity’ of resins was calculated as the fraction of bound antibody BAb, divided by the fraction of bound host cell proteins BHCP.
as §4

Bevacizumab [2] = target: T1, Bevacizumab (Homo sapiens, UniProt P01857); test: as above; assay type: binding, humanized
T1 construct: fused on or other part: humanised anti-VEGF-A VH domain N-terminal of the gamma-1 constant region (engineered, no UniProt entry)
Experimental: as §1, §2, §3, §5, §6, §4

[3] = system: human poly-IgG (h-poly-IgG); test: Microtiter plate chromatography of resins, human poly-IgG (bound, yield); assay type: binding
Experimental: as §1, §2, §3, §5, §4

Palivizumab = test: Microtiter plate chromatography of resins, Palivizumab (bound, yield); assay type: binding, humanized
Experimental: as §1, §2, §3, §5, §4

Tocilizumab = test: Microtiter plate chromatography of resins, Tocilizumab (bound, yield); assay type: binding, humanized
Experimental: as §1, §2, §3, §5, §4

[4] = fraction of injected host cell proteins bound to resin
[5] = fraction of injected whole IgG bound to resin
[6] = mass eluted / mass injected, whole IgG
[7] = fraction of injected protein bound to resin
[8] = fraction of whole IgG Bevacizumab bound to resin
[9] = mass of whole IgG Bevacizumab eluted / mass injected

Structure (SMILES)	Selectivity (Bevacizumab [1])	HCP Bound (%) (host cell proteins (HCP); host cell proteins)	Bevacizumab IgG Bound (%) (Bevacizumab [2]; [8])	Bevacizumab IgG Yield (%) (Bevacizumab [2]; [9])	h-poly-IgG Bound (%) [3]	h-poly-IgG Yield (%) [3]	Palivizumab Bound (%) (Palivizumab)	Palivizumab Yield (%) (Palivizumab)	Tocilizumab Bound (%) (Tocilizumab)	Tocilizumab Yield (%) (Tocilizumab)	other results
COc1ccc(NC(=O)c2cc(-c3ccco3)n(C)n2)cc1C(=O)NCCOCCOCC(=O)NCCOCCOCC(=O)NCCCN [Ligand L65, 8-{8-{5-[5-(2-Furyl)-1-methylpyrazol-3-ylcarboxamido]-2-methoxyphenylcarboxamido}-3,6-dioxaoctanoylamido}-3,6-dioxaoctanoic acid (3-amino-1-propyl)amide]	9.5										HCP Bound (%) (host cell proteins (HCP); [4]): 11%; Bevacizumab IgG Bound (%) (Bevacizumab [2]; [5]): 100%; Bevacizumab IgG Yield (%) (Bevacizumab [2]; [6]): 100%; h-poly-IgG Bound (%) [3, 7]: 67%; h-poly-IgG Yield (%) ([3]; mass eluted / mass injected): 67%; Palivizumab Bound (%) (Palivizumab; [7]): 58%; Palivizumab Yield (%) (Palivizumab; mass eluted / mass injected): 58%; Tocilizumab Bound (%) (Tocilizumab; [7]): 74%; Tocilizumab Yield (%) (Tocilizumab; mass eluted / mass injected): 71%
COc1ccc(NC(=O)c2cc(-c3ccco3)ccn2)cc1C(=O)NCCCN [Ligand L52, 5-[4-(2-Furyl)pyridin-2-ylcarboxamido]-2-methoxybenzoic acid (3-amino-1-propyl)amide]	2.4	41%	100%	99%	100%	100%	100%	83%	100%	100%	
COc1ccc(NC(=O)c2cc(-c3ccccc3)no2)cc1C(=O)NCCCN [Ligand L51, 2-Methoxy-5-(3-phenylisoxazol-5-ylcarboxamido)benzoic acid (3-amino-1-propyl)amide]	3.3	30%	100%	95%	89%	89%	85%	85%	95%	93%	
COc1ccc(NC(=O)c2onc3ccccc23)cc1C(=O)NCCCN [Ligand L31, 5-(Benzo[c]isoxazol-3-yl)carboxamido-2-methoxybenzoic acid N-(3-aminopropyl)amide]	4.4	23%	100%	96%	95%	74%	99%	94%	100%	98%	selectivity index (Bevacizumab [1]; fraction of bound Bevacizumab whole IgG divided by fraction of bound HCP, truncated beyond 10): 4.4
Cn1nc(C(=O)Nc2ccc(O)c(C(=O)NCCCN)c2)cc1-c1ccco1 [Ligand L30, 5-[5-(2-Furyl)-1-methylpyrazol-3-yl]carboxamido-2-hydroxybenzoic acid N-(3-aminopropyl)amide]	2.4	42%	100%	93%	74%	53%	68%	66%	83%	79%	
COc1ccc(NC(=O)c2cc(-c3cccc(Cl)c3)n(C)n2)cc1C(=O)NCCCN [Ligand L7, 5-[5-(3-Chlorophenyl)-1-methylpyrazol-3-yl]carboxamido-2-methoxybenzoic acid N-(3-aminopropyl)amide]	1.4	70%	100%	110%	100%	91%	100%	99%	92%	109%	
COc1ccc(NC(=O)c2n[nH]c3ccccc23)cc1C(=O)NCCCN [Ligand L36, 5-(Indazol-3-yl)carboxamido-2-methoxybenzoic acid N-(3-aminopropyl)amide]	1.9	54%	100%	100%	95%	77%	100%	100%	100%	95%	
COc1ccc(NC(=O)c2cc(-c3cc(C)sc3C)n(C)n2)cc1C(=O)NCCCN [Ligand L3, 5-[5-(2,5-Dimethyl-3-thienyl)-1-methylpyrazol-3-yl]carboxamido-2-methoxybenzoic acid N-(3-aminopropyl)amide]	1.4	62%	100%	89%	102%	72%	100%	93%	97%	95%	
NCCCNC(=O)c1cccc(C(=O)Nc2ncc(-c3ccccc3)s2)c1 [Ligand L74, Isophthalic acid N-(3-aminopropyl)-N′-(5-phenylthiazol-2-yl)amide]	1.9										HCP Bound (%) (host cell proteins (HCP); [4]): 53%; Bevacizumab IgG Bound (%) (Bevacizumab [2]; [5]): 100%; Bevacizumab IgG Yield (%) (Bevacizumab [2]; [6]): 96%; h-poly-IgG Bound (%) [3, 7]: 91%; h-poly-IgG Yield (%) ([3]; mass eluted / mass injected): 90%; Palivizumab Bound (%) (Palivizumab; [7]): 88%; Palivizumab Yield (%) (Palivizumab; mass eluted / mass injected): 86%; Tocilizumab Bound (%) (Tocilizumab; [7]): 97%; Tocilizumab Yield (%) (Tocilizumab; mass eluted / mass injected): 91%
COc1ccc(NC(=O)c2cn3ncccc3n2)cc1C(=O)NCCOCCOCC(=O)NCCCC[C@H](NC(=O)COCCOCCNC(=O)c1cc(NC(=O)c2cn3ncccc3n2)ccc1OC)C(=O)NCCCN [Ligand L62, (S)-2,6-Bis{8-[5-(Imidazo[1,2-b]pyridazin-2-ylcarboxamido)-2-methoxyphenylcarboxamido]-3,6-dioxaoctanoylamido}hexanoic acid (3-amino-1-propyl)amide]		3%	100%	100%	89%	89%	84%	77%	95%	91%	Selectivity (Bevacizumab [1]; fraction of bound Bevacizumab whole IgG / fraction of bound HCP, truncated beyond values of 10): 10.0
COc1ccc(NC(=O)c2nnc(-c3ccco3)o2)cc1C(=O)NCCCN [Ligand L58, 5-[5-(2-Furyl)-1,3,4-oxadiazol-2-yl]carboxamido-2-methoxybenzoic acid (3-amino-1-propyl)amide]	4.3	23%	100%	90%	98%	93%	97%	83%	100%	100%	
COc1ccc(-c2noc(C(=O)Nc3ccc(OC)c(C(=O)NCCCN)c3)n2)cc1 [Ligand L54, 2-Methoxy-5-[3-(4-methoxyphenyl)-1,2,4-oxadiazol-5-ylcarboxamido]benzoic acid (3-amino-1-propyl)amide]	2.8	36%	100%	100%	100%	98%	100%	84%	100%	100%	
Cn1nc(C(=O)Nc2ccc(C(=O)NCCCN)cc2)cc1-c1ccco1 [Ligand L18, 4-[5-(2-Furyl)-1-methylpyrazol-3-yl]carboxamidobenzoic acid N-(3-aminopropyl)amide]	2.2	46%	100%	95%	68%	71%	54%	43%	76%	76%	
NCCCNC(=O)c1cccc(C(=O)Nc2nc(-c3ccccc3)cs2)c1 [Ligand L73, Isophthalic acid N-(3-aminopropyl)-N′-(4-phenylthiazol-2-yl)amide]	1.9										HCP Bound (%) (host cell proteins (HCP); [4]): 52%; Bevacizumab IgG Bound (%) (Bevacizumab [2]; [5]): 100%; Bevacizumab IgG Yield (%) (Bevacizumab [2]; [6]): 92%; h-poly-IgG Bound (%) [3, 7]: 92%; h-poly-IgG Yield (%) ([3]; mass eluted / mass injected): 87%; Palivizumab Bound (%) (Palivizumab; [7]): 87%; Palivizumab Yield (%) (Palivizumab; mass eluted / mass injected): 87%; Tocilizumab Bound (%) (Tocilizumab; [7]): 97%; Tocilizumab Yield (%) (Tocilizumab; mass eluted / mass injected): 95%
